# In patent publication US20130023504A1, “Modulation of Prostaglandin/Cyclooxygenase Metabolic Pathways” (HUNTER-FLEMING LIMITED, priority 2006, published 2013):
# Several values for one entry are separate records, joined by “and”; a condition that tells them apart may be missing. Equal entries are not always repeated. Marks after values point to notes of the source that are not given here.
# Columns and labels:
# [1] = system: PC-12 cells; experiment: Ischaemia (oxygen-glucose deprivation)-induced cell death in NGF-differentiated PC-12 cells, Trypan Blue exclusion; type: cell-based; conditions: vs. ischemia alone
# Method: PC-12 cells were maintained on flasks coated with Collagen typel in PC-12 media with the following composition; RPMI 1640 without L-glutamine with 2 mM L-glutamine, 10 mM HEPES, 1 mM Sodium Pyruvate, additional glucose to give a final concentration of 4.5 g/L (RPMI normally has 2 g/L), 10% heat inactivated horse serum, 5% foetal calf serum and 50 units of penicillin/streptomycin. Media was changed every 2 days.
# Confluent cultures of PC-12 cells were differentiated by culturing for 7 days in PC-12 medium without serum but with 50 ng/mlNGF (PC-12 NGF media). The cells were harvested, washed, counted and 1×10^5 PC-12 cells/well were plated overnight in a micro titre plate in glucose free PC-12 NGF medium. The medium was then changed to glucose-free PC-12 NGF medium containing the compounds to be tested and the plates left under normoxic conditions for 30 minutes.
# During this stage, the media and test substances for the anoxic exposure were placed in a chamber and de-oxygenated with 95% N2/5% CO2. The media in the plates was changed with the de-oxygenated media and the plates then placed in an anaerobic chamber gassed with 95% N2 5% CO2 for 10 minutes before being sealed and incubated at 37° C. overnight (18 hours). For normoxia controls, the cells were treated identically to ischemic treatments except that all incubations were in 5% CO2/95% air.
# Viability was determined using Trypan Blue exclusion.
# [2] = system: collagen-induced arthritis; experiment: Collagen-induced arthritis (CII/CFA), histopathology, clinical score, knee homogenate prostaglandins; type: in vivo, mouse
# [3] = system: rat spinal cord motor neurones; experiment: Neurite growth of spinal cord motor neurones in primary culture (anti β-Tubulin, In Cell Analyzer); type: cell-based
# Method: Rat spinal motor neurones were prepared according to the method described by Martinou et al., 1992 (Martinou J C, Martinou I, Kato AC Cholinergic differentiation factor (CDF/LIF) promotes survival of isolated rat embryonic motoneurons in vitro. Neuron. 1992 April; 8(4):737-44). Briefly, pregnant female Wistar rats of 15 days gestation, were killed by cervical dislocation and the foetuses were removed from the uterus. Their spinal cords were removed and placed in ice-cold medium of Leibovitz (L15, Invitrogen, 11415-049) containing 1% of bovine serum albuminutes (BSA fatty acid free, Eurobio, Les Ulis, France, GXXBSA01-65). Meninges were carefully removed.
# The spinal motor neurones were dissociated by trypsinisation for 20 minutes at 37° C. (trypsin EDTA 10× Invitrogen 15400054) diluted in PBS without calcium and magnesium (Invitrogen 2007-03). The reaction was stopped by the addition of Dulbecco Modified Eagle's Media (DMEM, Invitrogen 21969-035) containing DNase I grade II (0.1 mg/ml Roche diagnostic 104159) and 10% foetal calf serum (FCS, Invitrogen 10270098). The suspension was then mechanically dissociated by 3 passages through a 10 ml pipette. Cells were then centrifuged at 580 g for 10 minutes at room temperature. The pellet of dissociated cells was re-suspended in L15 medium and the resulting suspension was enriched in motor neurones by centrifugation at 180×g for 10 minutes at room temperature on a layer of BSA solution (3.5%) in L15 medium. The supernatant was discarded and the pellet was re-suspended in L15 medium supplemented with DNase I (1%). Then the suspension was layered over a cushion of Optiprep (d: 1.06 g/ml; Abcys, Paris, France; 1030061) and centrifuged at 335×g for 15 minutes at room temperature. The upper phase, containing the purified motor neurones, was collected, re-suspended with L15 medium and centrifuged at 800×g for 10 minutes at room temperature. The cell pellet was finally resuspended in a defined culture medium consisting of neurobasal medium supplemented with 2% B27, 2 mM L-Glutamine and Penicillin 50 Ul/ml-Streptomycin 50 μg/ml. Viable cells were counted in a Neubauer cytometer using the trypan blue exclusion test (Sigma T8154) then plated at 30 000 cells/well in 96 well-plates (pre-coated with poly-1-lysine; Nunclon, Invitrogen P5899) and cultured at 37° C. in a humidified air (95%) CO2 (5%) atmosphere.
# The culture medium was changed into a defined culture medium after a 12 hours incubation period following the conditions described below:
# BDNF 50 ng/ml and 10 ng/ml (in 0.1% DMSO)
# After 6 hours, 12 hours and 24 hours of incubation with, cells were fixed for 5 minutes in an ethanol/acetic acid solution (95%/5%) at −20° C. and rinsed 3 times in PBS.
# Motor neurones and sensory neurones were labelled by monoclonal anti β-Tubulin antibody (Sigma T8660) diluted at 1:400 in incubation solution (PBS with 5% of FCS and 0.1% of saponin, Sigma S-7900). This antibody specifically labels neurone cell bodies and neurites.
# After 2 hours of incubation, the cells were washed in PBS and incubated with Alexa Fluor 488 goat anti mouse IgG (Molecular Probes A11001) diluted at 1:300 in incubation solution to reveal the 8-Tubulin III antibodies.
# Analysis of the total length of neurones labelled with anti β-Tubulin antibodies (neurones) were carried out using In Cell Analyzer 1000 3.2.Workstation software.
# The results were expressed in percentage compared to the vehicle. Comparison of groups was carried out using the unpaired T test.
smiles,measurement,setting,value
"CC12CCC3C(C1CCC2=O)[C@@H](O)C[C@H]1C[C@@H](O)CCC31C (stereo partly drawn) [Compound 7β-OH-EPIA, 7β-hydroxy-EPIAndrosterone]",decrease in cell death,[1]; 1 μM,26% and 25%
same,decrease in cell death,[1]; 10 μM,53% and 50%
same,15d-PGJ2 in knee homogenates,"[2]; 0.1 μg/kg day, D 20-50, Day 50",78.96 ± 22.18 pg/mL
same,Clinical Score (joint swelling),"[2]; 0.1 μg/kg day, D 20-50, Day 50",3.10 ± 2.96
same,PGE2/15d-PGJ2,"[2]; 0.1 μg/kg day, D 20-50, Day 50",1.21
same,PGE2 in knee homogenates,"[2]; 0.1 μg/kg day, D 20-50, Day 50",95.61 ± 34.65 pg/mL
same,Histopathology Score (both paws on Day 50),"[2]; 1.0 μg/kg s.c. daily, treatment from Day 20-50",0.60
same,animals completely clear of histopathological change in the paw joints,"[2]; 10.0 μg/kg, treatment day 0 to day 30",9 out of 10
same,Histopathology Score (both paws on Day 50),"[2]; 10.0 μg/kg, treatment from Day 0-30",0.2*
same,Histopathology Score (both paws on Day 50),"[2]; 10.0 μg/kg, treatment from Day 20-50",0.44
same,Histopathology Score (both paws on Day 50),"[2]; 100.0 μg/kg, treatment from Day 20-50",0.85
same,"Neurites length per field, % Vehicle","[3]; 10^−4 M, 6 hours",124%
same,"Neurites length per field, Mean","[3]; 10^−4 M, 6 hours",315.9 μm
same,"Neurites length per field, % Vehicle","[3]; 10^−4 M, 12 hours",142%
same,"Neurites length per field, Mean","[3]; 10^−4 M, 12 hours",602.4 μm
same,"Neurites length per field, % Vehicle","[3]; 10^−4 M, 24 hours",87%
same,"Neurites length per field, Mean","[3]; 10^−4 M, 24 hours",188.4 μm
same,"Neurites length per field, % Vehicle","[3]; 10^−5 M, 6 hours",115%
same,"Neurites length per field, Mean","[3]; 10^−5 M, 6 hours",293.3 μm
same,"Neurites length per field, % Vehicle","[3]; 10^−5 M, 12 hours",161%
same,"Neurites length per field, Mean","[3]; 10^−5 M, 12 hours",680.9 μm
same,"Neurites length per field, % Vehicle","[3]; 10^−5 M, 24 hours",93%
same,"Neurites length per field, Mean","[3]; 10^−5 M, 24 hours",200.9 μm
same,"Neurites length per field, % Vehicle","[3]; 10^−6 M, 6 hours",139%
same,"Neurites length per field, Mean","[3]; 10^−6 M, 6 hours",354.5 μm
same,"Neurites length per field, % Vehicle","[3]; 10^−6 M, 12 hours",137%
same,"Neurites length per field, Mean","[3]; 10^−6 M, 12 hours",580.3 μm
same,"Neurites length per field, % Vehicle","[3]; 10^−6 M, 24 hours",104%
same,"Neurites length per field, Mean","[3]; 10^−6 M, 24 hours",224.8 μm
same,"Neurites length per field, % Vehicle","[3]; 10^−7 M, 6 hours",138%
same,"Neurites length per field, Mean","[3]; 10^−7 M, 6 hours",350.5 μm
same,"Neurites length per field, % Vehicle","[3]; 10^−7 M, 12 hours",137%
same,"Neurites length per field, Mean","[3]; 10^−7 M, 12 hours",956.7 μm
same,"Neurites length per field, % Vehicle","[3]; 10^−7 M, 24 hours",126%
same,"Neurites length per field, Mean","[3]; 10^−7 M, 24 hours",271.7 μm
same,"Neurites length per field, % Vehicle","[3]; 10^−8 M, 6 hours",150%
same,"Neurites length per field, Mean","[3]; 10^−8 M, 6 hours",382.4 μm
same,"Neurites length per field, % Vehicle","[3]; 10^−8 M, 12 hours",179%
same,"Neurites length per field, Mean","[3]; 10^−8 M, 12 hours",759.0 μm
same,"Neurites length per field, % Vehicle","[3]; 10^−8 M, 24 hours",174%
same,"Neurites length per field, Mean","[3]; 10^−8 M, 24 hours",374.6 μm
same,"Neurites length per field, % Vehicle","[3]; 10^−9 M, 6 hours",188%
same,"Neurites length per field, Mean","[3]; 10^−9 M, 6 hours",479.3 μm
same,"Neurites length per field, % Vehicle","[3]; 10^−9 M, 12 hours",180%
same,"Neurites length per field, Mean","[3]; 10^−9 M, 12 hours",764.9 μm
same,"Neurites length per field, % Vehicle","[3]; 10^−9 M, 24 hours",123%
same,"Neurites length per field, Mean","[3]; 10^−9 M, 24 hours",265.9 μm
